Experimental data published in patent EP4311545A1, “COMPOUNDS USEFUL FOR THE POST-STING TREATMENT FROM A CNIDARIAN ORGANISM” (Isdin, S. A., priority 2022, dated 2024).

Tested on: P. noctiluca
Test: Tentacle Skin Blood Agarose Assay (TSBAA): venom load after natural stimulation of nematocyst discharge
Type: cell-based
Details: for discharge of nematocysts: summary of the results of Examples 1 and 2
Procedure: Example 2: Natural stimulation of nematocyst discharge. Tentacle Skin Blood Agarose Assay (TSBAA).
Briefly, an agarose gel preparation incorporating sheep red blood cells (SRBCs) (Thermo Fisher Scientific) was used covered by a thin tissue of pig intestine to simulate the effect of the human skin barrier.
A solution of 4% low melting point agarose (INVITROGEN ™ LMP Agarose) in phosphate buffered saline (PBS) (SIGMA) was prepared and cooled to room temperature for a few minutes. The SRBCs were centrifuged and resuspended in PBS until a final concentration of 2% was obtained. Equal volumes of both preparations were mixed and poured onto a glass surface with a mold (18x7.5 cm) and allowed to cool to room temperature. Once the agarose with SRBCs was set, rectangles were cut and placed on slides and kept at 4 °C in a humidification chamber (maximum 72 hours until use).
Pig small intestine tissue was washed in a 50 mM saline solution and then cut in rectangular sections. […] The next day, the sections were stretched on a glass surface and allowed to dry for a few minutes in the open air. The pretreated sections of the pig small intestine were placed on the SRBC agarose rectangles
Cutting tentacles of the same size is a complicated process due to the contraction and expansion of the tentacles after their manipulation. In order to control the sting area, we design plastic molds obtained through a 3D printer.
Tentacle pieces of approximately 3 cm long were incubated on reductor or inhibitory solutions (Method 3) for 5 minutes. Consecutively, the agarose rectangles were stung by a sting diameter of 57,35 mm^2 for 1 minute. A weight of 0,66 g was applied to ensure the contact between the tentacle and the skin. After the sting process, the plastic molds and the intestine sections were removed and the SRBC's agarose rectangles were stored in the humidification chamber at room temperature. After a period of 22 hours, images of the hemolytic areas were obtained with a camera. Hemolytic areas were calculated using the Fiji version of ImageJ software (J. Schindelin et al., Fiji: an open-source platform for biological-image analysis. Nature methods, 2012, vol. 9, pp. 676-682). Table 2. Inhibitory efficacy on the venom load to P. noctiluca.

Compound	discharge of nematocysts	Venom load - Hemolytic area (%) (tentacles incubated 5 minutes in solution, sting 1 minute on SRBC agarose covered with pig intestine, read after 22 hours)	% Inhibitory ({}) [%]
CC(C)(C)C1CCC(O)CC1 (stereo not shown) [4-tert-butyl cyclohexanol]	significantly reduces	–	–
CC(O)CCO (stereo not shown) [100% Butylene glycol, Butylene glycol]	–	26.54 ± 19.66	56.33
O=C(CO)c1ccccc1 [HAP, hydroxy acetophenone]	significantly reduces	–	–
